Laboratory results reported in patent US6323186A, “Phosphate-bound polyazaindacene derivatives of nucleotides” (Molecular Probes, Inc., priority 2000, dated 2001).

Test: Relative quantum yield determination for labeled nucleotides
Assay type: physicochemical
Description: […] The concentration of this solution is matched with that of a solution of Compound 2 in the same solvent by matching the optical density (OD) at the absorption wavelength maximum, which is 504 nm for both samples.

[1] = in methanol, relative to reference fluorophore
[2] = pH 9 phosphate buffer, OD matched at absorption maximum, excited at λmax, reference 4,4-difluoro-5,7-dimethyl-4-bora-3a,4a-diaza-s-indacene-3-propionic acid
[3] = pH 9 phosphate buffer, relative to reference fluorophore

Structure (SMILES)	fluorescence quenched [1] [%]	fluorescence yield relative to reference fluorophore [1] [%]	fluorescence yield relative to reference fluorophore [2] [%]	fluorescence quenched [3] [%]
Nc1nc2c(ncn2[C@@H]2O[C@H](COP(=O)(O)OP(=O)(O)OP(=O)(O)SCC(=O)NCCCCCNC(=O)COc3ccc(C4=[N+]5C(=Cc6ccc(-c7cccs7)n6[B-]5(F)F)C=C4)cc3)[C@@H](O)[C@H]2O)c(=O)[nH]1 [Compound 4]	25	75	9.1	90.9
Cc1cc(C)n2c1C=C1C=CC(CNC(=O)CSP(=O)(O)OP(=O)(O)OP(=O)(O)OC[C@H]3O[C@@H](n4cnc5c(=O)[nH]c(N)nc54)[C@H](O)[C@@H]3O)=[N+]1[B-]2(F)F [Compound 2]	41	59	11	89
